Results from patent publication US20250228858A1, “ANTI-CANCER COMBINATION THERAPY” (Boehringer Ingelheim International GmbH, priority 2023, published 2025).

Experiments:
[1] = system: HER2-overexpressing human breast cancer cell line SUM190PT; assay type: in vivo
Experimental: The study is performed in human breast cancer cell line SUM190PT grown as subcutaneous xenografts in NMRI-Foxn1^nu mice. Day 1 was the first day, day 21 the last day of treatment and final day of analysis.
Cells are obtained and cultured as described in Example 8 (see paragraph 8.1.2).
Capecitabine can be purchased from Roche Pharma AG. Capecitabine is suspended with 0.5% Natrosol and administered intragastrally with a volume of 10 ml/kg.
Tumor volumes and side effects are monitored as described in Example 1 (see paragraph 1.1.6), except that control animals are sacrificed when the median tumor volume of the group reaches a size of approximately 540 mm^3.
(§1) The statistical evaluation of the tumor volume and the body weight is conducted on day 21 (last day of the study). Apart from this, statistical analysis was performed as described in Example 1 (see paragraph 1.1.7), with no evaluation of tumor growth after stop of treatment.

[2] = system: HER2-overexpressing human gastric cancer cell line NCI-N87; test: NCI-N87 subcutaneous xenograft, zongertinib with T-DXd; assay type: in vivo, NMRI-Foxn1^nu mice; conditions: for Regressions >30% / TGI: day 22; for Regressions >30%: tumors regressed/total
Experimental: The study is performed in human gastric cancer cell line NCI-N87 grown as subcutaneous xenografts in NMRI-Foxn1^nu mice. Day 1 was the first day, day 21 the last day of treatment and day 22 the final day of analysis. […]
NCI-N87 is a HER2-overexpressing human gastric cancer cell line that can be obtained from the American Type Culture Collection (ATCC #CRL-5822). Cells are cultured in T175 tissue culture flasks at 37° C. and 5% CO2. The medium used is RPMI 1640 (ATCC #30-2001) supplemented with 10% fetal calf serum (FCS) (Thermo Scientific #SH 30084.03). Cultures are split twice weekly with a ratio of 1:2.
Mice are 6- to 10-week-old female NMRI-Foxn1^nu purchased from Taconic, Denmark. After arrival at the animal facility, mice are allowed to adjust to conditions at least for 5 days before they are used for the experiment. They are housed in Macrolon® type III cages in groups of 8 to 10 under pathogen-free, controlled and standardized conditions at 21.5±1.5° C. temperature, 55±10% humidity and 12-h light-dark cycle. Standardized diet (PROVIMI KLIBA) and autoclaved tap water are provided ad libitum. Subcutaneous microchips implanted under isoflurane anaesthesia are used to identify each mouse. Cage cards showing the study number, the animal identification number, the compound, the dose level, the administration route as well as the schedule remain with the animals throughout the study.
To establish subcutaneous tumors, NCI-N87 cells are harvested by centrifugation, washed and resuspended in PBS+5% FCS at 2.5×10^7 cells/ml. 100 μl cell suspension containing 2.5×10^6 cells is injected subcutaneously into the right flank of the mice (1 site per mouse).
The suspension is used for a maximum of 7 days.
T-DM1 (Kadcyla) can be purchased from Roche.
Mice in the control group are treated with vehicle, i.e.: • (i) 0.5% Natrosol, administered once daily for the duration of the treatment intragastrally by gavage needle with a volume of 10 ml/kg body weight; and • (ii) saline (0.9%), administered once every three weeks intravenously into the tail vein with a volume of 5 ml/kg.
Tumor volumes are measured three times a week with a caliper. The volume of each tumor [in mm^3] is calculated according to the formula: […]
To monitor side effects of treatment, mice are inspected daily for abnormalities and body weight is determined three times a week. […] In addition, animals with tumor sizes exceeding 1500 mm^3 in diameter, with ulcerating tumors or 18% body weight loss are euthanized for ethical reasons.
For a quick overview of possible treatment effects, the median of the tumor volume of each treatment group T is referred to the median of the control C as tumor growth inhibition (TGI) defined as: […]

[3] = system: HER2-overexpressing human NSCLC cell line NCI-H2170; test: NCI-H2170 subcutaneous xenograft, zongertinib with T-DXd; assay type: in vivo, NMRI-Foxn1^nu mice; conditions: day 21, alone or combined; for Regressions >30%: tumors regressed/total (partial response)
Experimental: The study is performed in human NSCLC cell line NCI-H2170 grown as subcutaneous xenografts in NMRI-Foxn1^nu mice. Day 1 was the first day, day 21 the last day of treatment and final day of analysis.
NCI-H2170 is a HER2-overexpressing NSCLC cell line that can be obtained from the American Type Culture Collection (ATCC #CRL-5928; original vial lot: 4419196). Cells are cultured in T175 tissue culture flasks at 37° C. and 5% CO2. The medium used is RPMI 1640 (ATCC #30-2001) supplemented with 10% fetal bovine serum (FBS) (Gibco #26140079). Cultures are split twice weekly with a ratio of 1:3-1:9.
To establish subcutaneous tumors, NCI-H2170 cells are harvested by centrifugation, washed and resuspended in PBS+5% FCS at 1×10^7 cells/ml. 100 μl cell suspension containing 1×10^6 cells are injected subcutaneously into the right flank of the mice (1 site per mouse).
Tumor volumes and side effects are monitored as described in Example 1 (see paragraph 1.1.6), except that control animals are sacrificed when the median tumor volume of the group reaches a size of approximately 1000 mm^3.
as §1

[4] = zongertinib 10 mg/kg qdx21 p.o., alone or combined with T-DXd 3 mg/kg q21dx1 i.v.
[5] = zongertinib 20 mg/kg qdx21 p.o., T-DXd 3 mg/kg q21dx1 i.v., alone or combined
[6] = zongertinib 20 mg/kg qdx21 p.o., T-DXd 3 mg/kg q21dx1 i.v.

C=CC(=O)NC1CCN(c2ncc3ncnc(Nc4ccc(Oc5ccc6c(c5)ncn6C)c(C)c4)c3n2)CC1 [Zongertinib, N-{1-[8-({3-methyl-4-[(1-methyl-1H-1,3-benzodiazol-5-yl)oxy]phenyl}amino)-[1,3]diazino [5,4-d]pyrimidin-2-yl]piperidin-4-yl}prop-2-enamide]
Regressions >30% ([1]; day 21, tumors regressed/total (partial response), zongertinib 10 mg/kg qdx21 p.o., capecitabine 400 mg/kg qdx21 p.o., trastuzumab 20 mg/kg q7dx3 i.p., alone or combined): 0/8
TGI ([1]; day 21, zongertinib 10 mg/kg qdx21 p.o., capecitabine 400 mg/kg qdx21 p.o., trastuzumab 20 mg/kg q7dx3 i.p., alone or combined): 53%
effect on tumor growth (median tumor volumes over time) ([1]; zongertinib 10 mg/kg qdx21, capecitabine 400 mg/kg qdx21, trastuzumab 20 mg/kg q7dx3, alone or triple combination): delayed tumor growth but did not shrink tumors
Regressions >30% [2, 4]: 5/8
Regressions >30% [2, 5]: 7/8
TGI [2, 4]: 114%
TGI [2, 5]: 123%
effect on tumor growth (median tumor volumes over time) ([2]; zongertinib 10 or 20 mg/kg/day, T-DXd 3 mg/kg once, 21-day experiment): continuously shrank more than those in mice treated with T-DXd
stable disease ([3]; number of tumors out of 8, zongertinib 20 mg/kg qdx21, T-DXd 3 mg/kg q21dx1): 1
Regressions >30% [3, 6]: 0/8
Regressions >30% ([3]; zongertinib 20 mg/kg qdx21 p.o., T-DXd 3 mg/kg q21dx1 i.v., listed as zongertinib): no partial responses
TGI [3, 6]: 89%
